Source: PubChem BioAssay AID1963853 (Molecular Pharmacology Branch, DTP, NCI, 2024)

System: 266295-075-R-J1-PDC spheroid viability
Assay: Anticancer human tumor 266295-075-R-J1-PDC patient-derived head and neck squamous carcinoma cell line growth inhibition [POLQ]
Conditions: spheroids with HUVEC and MSC; for IC50: curve of first compound; for viability, T/C: stronger effect = lower value; active means viability on the fitted dose curve at most 10% of control; inactive means the rest
Procedure, shortened: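 Growth inhibition in 3D: complex spheroids (tumor PDC, HUVEC, MSC) treated with POLQ inhibitor combinations; where Cmax unknown, highest tested concentration 10 microM, except SN-38 at 1 microM.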
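Further: spheroids exposed to compounds for seven days before readout.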

CC1COCCN1c1cc(-c2ccnn2C)c2ccnc(-c3ccn[nH]3)c2n1 (configuration not stated) + Cc1cccc(N(C)C(=O)C2C(O)CCN2c2nc(C)cc(C(F)(F)F)c2C#N)c1
inactive: viability, T/C (second compound 0.0316 µM, first compound 0.0316 µM) 93.8% | viability, T/C (second compound 0.0316 µM, first compound 0.1 µM) 69.7% | viability, T/C (second compound 0.0316 µM, first compound 0.316 µM) 68.4% | viability, T/C (second compound 0.0316 µM, first compound 1 µM) 56% | viability, T/C (second compound 0.0316 µM, first compound 3.16 µM) 41% | viability, T/C (second compound 0.0316 µM, first compound 10 µM) 40% | viability, T/C (second compound 0.1 µM, first compound 0.0316 µM) 87.2% | viability, T/C (second compound 0.1 µM, first compound 0.1 µM) 68.4% | viability, T/C (second compound 0.1 µM, first compound 0.316 µM) 60.9% | viability, T/C (second compound 0.1 µM, first compound 1 µM) 52.6% | viability, T/C (second compound 0.1 µM, first compound 3.16 µM) 45.2% | viability, T/C (second compound 0.1 µM, first compound 10 µM) 40.9% | viability, T/C (second compound 0.316 µM, first compound 0.0316 µM) 75.6% | viability, T/C (second compound 0.316 µM, first compound 0.1 µM) 78.2% | viability, T/C (second compound 0.316 µM, first compound 0.316 µM) 68.9% | viability, T/C (second compound 0.316 µM, first compound 1 µM) 50.7% | viability, T/C (second compound 0.316 µM, first compound 3.16 µM) 47.4% | viability, T/C (second compound 0.316 µM, first compound 10 µM) 36.9% | viability, T/C (second compound 1 µM, first compound 0.0316 µM) 89% | viability, T/C (second compound 1 µM, first compound 0.1 µM) 81.6% | viability, T/C (second compound 1 µM, first compound 0.316 µM) 69.4% | viability, T/C (second compound 1 µM, first compound 1 µM) 48.4% | viability, T/C (second compound 1 µM, first compound 3.16 µM) 46.3% | viability, T/C (second compound 1 µM, first compound 10 µM) 38.1% | viability, T/C (second compound 3.16 µM, first compound 0.0316 µM) 81.3% | viability, T/C (second compound 3.16 µM, first compound 0.1 µM) 78.4% | viability, T/C (second compound 3.16 µM, first compound 0.316 µM) 66.8% | viability, T/C (second compound 3.16 µM, first compound 1 µM) 54.9% | viability, T/C (second compound 3.16 µM, first compound 3.16 µM) 46.6% | viability, T/C (second compound 3.16 µM, first compound 10 µM) 36.7% | viability, T/C (second compound 10 µM, first compound 0.0316 µM) 87.4% | viability, T/C (second compound 10 µM, first compound 0.1 µM) 90.1% | viability, T/C (second compound 10 µM, first compound 0.316 µM) 69.7% | viability, T/C (second compound 10 µM, first compound 1 µM) 56.3% | viability, T/C (second compound 10 µM, first compound 3.16 µM) 46.1% | viability, T/C (second compound 10 µM, first compound 10 µM) 38%
1640 nM: IC50 (second compound 0.0316 µM)
1320 nM: IC50 (second compound 0.1 µM)
1150 nM: IC50 (second compound 1 µM)
1870 nM: IC50 (second compound 3.16 µM)
1780 nM: IC50 (second compound 10 µM)
1400 nM: IC50 (second compound 0.316 µM)
